Results published in PubChem BioAssay (NCI).
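Grown in 96-well plates, cells were treated for 48 hours with each compound at five concentrations. Insufficient inhibition: endpoint recorded as highest concentration tested. TGI: total growth inhibition.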

Legend:
Experiment in all cases: NCI tumour cell line growth inhibition, 48 h
[1] = tested on: UACC-257 melanoma
[2] = tested on: SW-620 colon
[3] = tested on: HOP-62 NSCLC
[4] = tested on: LOX IMVI melanoma
[5] = tested on: A549 NSCLC
[6] = tested on: SF-295 CNS
[7] = tested on: NCI-H460 lung
[8] = tested on: MDA-MB-231 breast
[9] = tested on: DU-145 prostate
[10] = tested on: HS 578T breast
[11] = tested on: SK-MEL-2 melanoma
[12] = tested on: SNB-75 CNS
[13] = tested on: SNB-19 CNS
[14] = tested on: SK-MEL-5 melanoma
[15] = tested on: HCT-15 colon
[16] = tested on: SF-539 CNS
[17] = tested on: SN12C renal
[18] = tested on: CCRF-CEM leukemia
[19] = tested on: MOLT-4 leukemia
[20] = tested on: OVCAR-4 ovarian
[21] = tested on: MALME-3M melanoma
[22] = tested on: EKVX NSCLC
[23] = tested on: PC-3 prostate
[24] = tested on: HT29 colon
[25] = tested on: 786-0 renal
[26] = tested on: IGROV1 ovarian
[27] = tested on: OVCAR-3 ovarian
[28] = tested on: UO-31 renal
[29] = tested on: MDA-MB-435
[30] = tested on: MDA-N
[31] = tested on: ACHN renal
[32] = tested on: MCF7 breast
[33] = tested on: T-47D breast
[34] = tested on: K-562 leukemia
[35] = tested on: HOP-92 NSCLC
[36] = tested on: UACC-62 melanoma
[37] = tested on: U251 CNS
[38] = tested on: CAKI-1 renal
[39] = tested on: OVCAR-5 ovarian
[40] = tested on: COLO 205 colon
[41] = tested on: NCI-H23 lung
[42] = tested on: HL-60(TB) leukemia
[43] = tested on: NCI/ADR-RES ovarian
[44] = tested on: HCT-116 colon
[45] = tested on: A498 renal
[46] = tested on: SK-OV-3 ovarian
[47] = tested on: KM12 colon
[48] = tested on: SK-MEL-28 melanoma
[49] = tested on: RXF 393 renal
[50] = tested on: M14 melanoma
[51] = tested on: NCI-H226 lung
[52] = tested on: TK-10 renal
[53] = tested on: RPMI-8226 leukemia
[54] = tested on: NCI-H522 lung
[55] = tested on: BT-549 breast
[56] = tested on: OVCAR-8 ovarian
[57] = tested on: SF-268 CNS
[58] = tested on: HCC-2998 colon
[59] = tested on: SR leukemia

Question: With Nc1nc(N)c(N=Nc2ccc([As](=O)(O)O)c(O)c2)c(N)n1 as the molecule, how does the TGI [1] read?
Answer: > 100 µM

Question: And the TGI [2]?
Answer: > 100 µM

Question: What about the TGI [3] of the same molecule?
Answer: > 100 µM

Question: What about the TGI [4] of the same molecule?
Answer: > 100 µM

Question: What about the TGI [5] of the same molecule?
Answer: > 100 µM

Question: What about the TGI [6] of the same molecule?
Answer: > 100 µM

Question: What about the TGI [7] of the same molecule?
Answer: > 28.1 µM

Question: And the TGI [8]?
Answer: > 100 µM

Question: And the TGI [9]?
Answer: 38.1 µM

Question: And the TGI [10]?
Answer: > 77.3 µM

Question: And the TGI [11]?
Answer: > 59.9 µM

Question: What about the TGI [12] of the same molecule?
Answer: > 89.5 µM

Question: What about the TGI [13] of the same molecule?
Answer: > 100 µM

Question: And the TGI [14]?
Answer: > 100 µM

Question: And the TGI [15]?
Answer: > 100 µM

Question: And the TGI [16]?
Answer: > 56.8 µM

Question: What about the TGI [17] of the same molecule?
Answer: > 26.8 µM

Question: What about the TGI [18] of the same molecule?
Answer: > 19.7 µM

Question: And the TGI [19]?
Answer: > 48.3 µM

Question: What about the TGI [20] of the same molecule?
Answer: > 100 µM

Question: What about the TGI [21] of the same molecule?
Answer: > 100 µM

Question: And the TGI [22]?
Answer: > 100 µM

Question: What about the TGI [23] of the same molecule?
Answer: > 100 µM

Question: And the TGI [24]?
Answer: > 100 µM

Question: What about the TGI [25] of the same molecule?
Answer: > 100 µM

Question: And the TGI [26]?
Answer: > 100 µM

Question: What about the TGI [27] of the same molecule?
Answer: > 64.2 µM

Question: What about the TGI [28] of the same molecule?
Answer: > 100 µM

Question: And the TGI [29]?
Answer: 6.37 µM

Question: And the TGI [30]?
Answer: 5.29 µM

Question: And the TGI [31]?
Answer: > 100 µM

Question: And the TGI [32]?
Answer: > 100 µM

Question: And the TGI [33]?
Answer: > 100 µM

Question: What about the TGI [34] of the same molecule?
Answer: > 100 µM

Question: And the TGI [35]?
Answer: > 100 µM

Question: What about the TGI [36] of the same molecule?
Answer: > 100 µM

Question: And the TGI [37]?
Answer: > 100 µM

Question: And the TGI [38]?
Answer: > 100 µM

Question: What about the TGI [39] of the same molecule?
Answer: > 100 µM

Question: What about the TGI [40] of the same molecule?
Answer: > 100 µM

Question: And the TGI [41]?
Answer: > 100 µM

Question: What about the TGI [42] of the same molecule?
Answer: 13.2 µM

Question: What about the TGI [43] of the same molecule?
Answer: > 100 µM

Question: And the TGI [44]?
Answer: > 33.7 µM

Question: And the TGI [45]?
Answer: > 100 µM

Question: What about the TGI [46] of the same molecule?
Answer: > 100 µM

Question: What about the TGI [47] of the same molecule?
Answer: > 100 µM

Question: What about the TGI [48] of the same molecule?
Answer: > 100 µM

Question: And the TGI [49]?
Answer: > 29.8 µM

Question: And the TGI [50]?
Answer: > 100 µM

Question: What about the TGI [51] of the same molecule?
Answer: > 100 µM

Question: What about the TGI [52] of the same molecule?
Answer: > 51.8 µM

Question: What about the TGI [53] of the same molecule?
Answer: > 33.8 µM

Question: And the TGI [54]?
Answer: > 31 µM

Question: What about the TGI [55] of the same molecule?
Answer: > 100 µM

Question: And the TGI [56]?
Answer: > 100 µM

Question: And the TGI [57]?
Answer: > 100 µM

Question: CSc1cc(Cl)c(C)cc1S(=O)(=O)NC(=O)NNc1cnc2ccccc2n1 was tested. Which TGI [2] did it give?
Answer: > 100 µM

Question: What about the TGI [3] of the same molecule?
Answer: > 100 µM

Question: And the TGI [4]?
Answer: > 100 µM

Question: What about the TGI [5] of the same molecule?
Answer: > 100 µM

Question: What about the TGI [6] of the same molecule?
Answer: > 100 µM

Question: And the TGI [7]?
Answer: > 100 µM

Question: And the TGI [8]?
Answer: > 100 µM

Question: And the TGI [9]?
Answer: > 100 µM

Question: What about the TGI [10] of the same molecule?
Answer: > 100 µM

Question: And the TGI [11]?
Answer: > 100 µM

Question: What about the TGI [58] of the same molecule?
Answer: > 100 µM

Question: What about the TGI [13] of the same molecule?
Answer: > 100 µM

Question: And the TGI [14]?
Answer: > 100 µM

Question: And the TGI [15]?
Answer: > 100 µM

Question: What about the TGI [16] of the same molecule?
Answer: > 100 µM

Question: What about the TGI [17] of the same molecule?
Answer: > 100 µM

Question: And the TGI [18]?
Answer: > 100 µM

Question: What about the TGI [19] of the same molecule?
Answer: 56.8 µM

Question: What about the TGI [20] of the same molecule?
Answer: > 100 µM

Question: And the TGI [21]?
Answer: > 100 µM

Question: What about the TGI [22] of the same molecule?
Answer: > 100 µM

Question: What about the TGI [23] of the same molecule?
Answer: > 100 µM

Question: And the TGI [24]?
Answer: > 100 µM

Question: And the TGI [25]?
Answer: > 100 µM

Question: What about the TGI [26] of the same molecule?
Answer: > 100 µM

Question: And the TGI [27]?
Answer: > 100 µM

Question: And the TGI [59]?
Answer: > 100 µM

Question: And the TGI [29]?
Answer: > 100 µM

Question: What about the TGI [30] of the same molecule?
Answer: > 100 µM

Question: And the TGI [31]?
Answer: > 100 µM

Question: What about the TGI [32] of the same molecule?
Answer: > 100 µM

Question: What about the TGI [33] of the same molecule?
Answer: > 100 µM

Question: And the TGI [34]?
Answer: > 100 µM

Question: And the TGI [37]?
Answer: > 100 µM

Question: What about the TGI [38] of the same molecule?
Answer: > 100 µM

Question: And the TGI [39]?
Answer: > 100 µM

Question: What about the TGI [40] of the same molecule?
Answer: > 100 µM

Question: And the TGI [43]?
Answer: > 100 µM

Question: What about the TGI [44] of the same molecule?
Answer: > 100 µM

Question: What about the TGI [45] of the same molecule?
Answer: > 100 µM

Question: And the TGI [46]?
Answer: > 100 µM

Question: And the TGI [47]?
Answer: > 100 µM

Question: What about the TGI [48] of the same molecule?
Answer: > 100 µM

Question: What about the TGI [49] of the same molecule?
Answer: > 100 µM

Question: What about the TGI [50] of the same molecule?
Answer: > 100 µM

Question: And the TGI [51]?
Answer: > 100 µM

Question: And the TGI [54]?
Answer: > 100 µM

Question: What about the TGI [56] of the same molecule?
Answer: > 100 µM

Question: What about the TGI [57] of the same molecule?
Answer: > 100 µM
